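Values below derive from 48-hour exposures of cells grown in 96-well plates, with endpoints linearly interpolated between the two concentrations bracketing the appropriate inhibition level. The concentration for 50% growth inhibition is given as GI50. Definition used: TGI = concentration required for complete inhibition of growth.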
How the values were obtained:
Assay in all cases: NCI tumour cell line growth inhibition, 48 h
[1] = test system: MALME-3M melanoma
[2] = test system: RPMI-8226 leukemia
[3] = test system: SF-268 CNS
[4] = test system: HS 578T breast
[5] = test system: NCI-H226 lung
[6] = test system: A549 NSCLC
[7] = test system: NCI-H460 lung
[8] = test system: CCRF-CEM leukemia
[9] = test system: OVCAR-8 ovarian
[10] = test system: NCI-H23 lung

SMILES	GI50 [1]	TGI [1]	GI50 [2]	TGI [2]	GI50 [3]	TGI [3]	GI50 [4]	TGI [4]	GI50 [5]	TGI [5]	GI50 [6]	TGI [6]	GI50 [7]	TGI [7]	GI50 [8]	TGI [8]	GI50 [9]	TGI [9]	GI50 [10]	TGI [10]
C=C1C(=O)O[C@H]2[C@H]1CC/C(COC(=O)NCCCCCCCCNC(=O)OC/C1=C/CC[C@@]3(C)O[C@H]3[C@H]3OC(=O)C(=C)[C@@H]3CC1)=C\CC[C@@]1(C)O[C@@H]21	0.199 µM	0.43 µM	0.25 µM	0.745 µM	0.999 µM	2.69 µM	1.17 µM	8.23 µM	1.81 µM	4.39 µM	1.7 µM	3.51 µM	1.75 µM	3.98 µM	0.255 µM	0.837 µM	0.326 µM	1.24 µM	0.485 µM	1.74 µM
CN(C)CCOC(=O)Nc1nc2ccc(Sc3ccccc3)cc2[nH]1	4.93 µM	19.5 µM	3.72 µM	17.9 µM	6.41 µM	25.4 µM	4 µM	28.8 µM	4.61 µM	28.1 µM	4.97 µM	18.3 µM	3.69 µM	13.7 µM	2.67 µM	16.3 µM	4.26 µM	26.8 µM	4.08 µM	19.5 µM
CN(C)c1ccc(N=C2C=CC(=O)c3ccccc32)cc1	1.6 µM	3.75 µM	2.92 µM	19.7 µM	2.92 µM	13.1 µM	1.97 µM	6.09 µM	18.2 µM	54 µM	1.82 µM	3.89 µM	1.98 µM	4.86 µM	2.13 µM	6.17 µM	3.71 µM	18.2 µM	2.41 µM	8.04 µM
COc1cccc(Nc2nccc(-c3cnn4ncccc34)n2)c1	0.0739 µM	0.204 µM	0.0621 µM	0.166 µM	0.0721 µM	1.42 µM	0.0381 µM	0.117 µM	0.0546 µM	0.18 µM	0.0698 µM		0.0754 µM	> 25 µM	0.0723 µM		0.0681 µM	> 25 µM	0.0532 µM	0.201 µM
Nc1c(F)cc(-c2nc3cc(F)ccc3[se]2)cc1Br	25.3 µM	> 100 µM		> 100 µM	29.4 µM	> 100 µM	44.7 µM	> 100 µM	0.0484 µM	2.06 µM	0.137 µM	> 100 µM	0.0189 µM	> 35.2 µM	> 100 µM	> 100 µM	42.1 µM	> 100 µM	0.0414 µM	20 µM
CCN(Cc1ccc(F)cc1)c1ccc(CO)c(OC)c1	3.21 µM	14.3 µM	15.9 µM	50.5 µM	22.1 µM	> 65.4 µM	14.9 µM	> 100 µM	1.15 µM	2.77 µM	40.1 µM	> 100 µM	23.2 µM	> 100 µM	21.2 µM	72 µM	19.2 µM	> 64.5 µM	23.3 µM	> 100 µM
CN1CCN(Cc2ccc(NC(=O)c3cncc(C#Cc4cnc(N)c5cnccc45)c3)cc2C(F)(F)F)CC1	0.036 µM	0.176 µM	0.216 µM	3.25 µM	0.234 µM	6.93 µM	0.122 µM	0.7 µM	0.115 µM	4.54 µM	0.511 µM	7.79 µM	0.218 µM	3.31 µM	0.335 µM	8.71 µM	0.253 µM	8.09 µM	0.189 µM	3.81 µM
O=[N+]([O-])c1ccc(Sc2ccncn2)c([N+](=O)[O-])c1	1.32 µM	3.23 µM	2.59 µM	8.16 µM	2.75 µM	10.2 µM	3.06 µM	24.2 µM	7.22 µM	23.1 µM	4.3 µM	16.4 µM	3.18 µM	10.8 µM	0.504 µM	6.13 µM	3.47 µM	13.3 µM	2.93 µM	9.73 µM
C[CH2][Sn]([CH2]C)([O]C(=O)c1ccc(OC)c(OC)c1OC)[O]C(=O)c1ccc(OC)c(OC)c1OC	21.2 µM	50.6 µM	22.7 µM	72.2 µM	28 µM	> 46.4 µM	23.2 µM	88.8 µM	19.7 µM	46 µM	> 100 µM	> 100 µM	> 100 µM	> 100 µM	13.9 µM	56.8 µM	> 100 µM	> 100 µM	33 µM	> 67.1 µM
COc1ccc2c(c1OC(C)=O)C1=CC(=O)CCC13CCNC3C2 (configuration not stated)		> 100 µM		> 100 µM		> 100 µM		> 100 µM		> 100 µM		> 100 µM		> 100 µM		> 100 µM		> 100 µM		> 100 µM
Cc1nccc2c3ccc(OCc4cn(-c5ccc(Cl)cc5)nn4)cc3n(CC(C)C)c12	4.62 µM	13 µM	1.09 µM	3.95 µM	11.2 µM	> 33.3 µM	2.62 µM	30.1 µM	3.47 µM	13.7 µM	2.29 µM	13 µM	2.33 µM	12.9 µM	2.04 µM	> 33.3 µM	2.73 µM	16.2 µM	1.88 µM	17.2 µM
Cn1c2ccccc2c2c(=O)n(CCCC(=O)OC(=NC3CCCCC3)NC3CCCCC3)c3c(-c4ccccc4)nnn3c21	> 100 µM	> 100 µM	> 100 µM	> 100 µM	98.2 µM	> 100 µM	> 100 µM	> 100 µM	> 100 µM	> 100 µM	> 100 µM	> 100 µM	> 100 µM	> 100 µM	> 100 µM	> 100 µM	> 100 µM	> 100 µM	> 100 µM	> 100 µM
